Consider four molecules from BindingDB's records for doi:10.1016/j.str.2004.01.005 (University of Dundee, 2004).

One may read the IC50 as the concentration at which inhibition is half-maximal. A low value points to greater potency.

What all share (assay): PDK1 Kinase Activity Assay
Common to all, as to details: pH 7.5; 30 °C

Experiment [1] concerns the target T1, 3-phosphoinositide-dependent protein kinase 1 [51-359,T222A] (Homo sapiens, UniProt O15530, T222A).
T1 construct: 51-359

In experiment [2] the target is T2, 3-phosphoinositide-dependent protein kinase 1 [51-359,V143T,T222A] (Homo sapiens, UniProt O15530, T222A/V143T).
T2 construct: 51-359

Experiment [3] deals with T3, 3-phosphoinositide-dependent protein kinase 1 [51-359,L159M] (Homo sapiens, UniProt O15530, L159M).
T3 construct: 51-359

In experiment [4] the target is T4, 3-phosphoinositide-dependent protein kinase 1 [51-359] (Human, UniProt O15530).
T4 construct: 51-359
T4 sequence (O15530 whole entry): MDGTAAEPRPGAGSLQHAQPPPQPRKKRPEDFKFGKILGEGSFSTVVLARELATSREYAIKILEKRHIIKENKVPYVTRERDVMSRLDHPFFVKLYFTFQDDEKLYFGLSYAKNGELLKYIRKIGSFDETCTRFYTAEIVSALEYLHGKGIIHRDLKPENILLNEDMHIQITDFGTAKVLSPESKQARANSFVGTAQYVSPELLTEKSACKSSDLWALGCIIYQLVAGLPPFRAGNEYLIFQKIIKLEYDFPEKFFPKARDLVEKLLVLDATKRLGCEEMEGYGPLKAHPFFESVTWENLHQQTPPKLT

For experiment [5], the target named is T5, 3-phosphoinositide-dependent protein kinase 1 [51-359,V143T] (Homo sapiens, UniProt O15530, V143T).
T5 construct: 51-359

The target of experiment [6] is T6, 3-phosphoinositide-dependent protein kinase 1 [51-359,E166D] (Homo sapiens, UniProt O15530, E166D).
T6 construct: 51-359

Experiment [7] concerns the target T7, 3-phosphoinositide-dependent protein kinase 1 [51-359,A162V] (Homo sapiens, UniProt O15530, A162V).
T7 construct: 51-359

T7 sequence (O15530 51-359 A162V): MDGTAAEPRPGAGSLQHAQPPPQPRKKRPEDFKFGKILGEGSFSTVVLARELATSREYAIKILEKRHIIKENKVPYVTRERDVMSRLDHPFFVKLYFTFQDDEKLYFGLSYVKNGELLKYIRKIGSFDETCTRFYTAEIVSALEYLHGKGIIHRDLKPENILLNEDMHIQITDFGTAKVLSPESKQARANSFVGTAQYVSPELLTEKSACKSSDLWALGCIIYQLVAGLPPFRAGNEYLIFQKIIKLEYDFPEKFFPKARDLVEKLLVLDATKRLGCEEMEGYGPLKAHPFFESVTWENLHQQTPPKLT
T5 sequence (O15530 51-359 V143T): as the sequence (O15530 51-359 A162V) above, with V93T, V112A counted along it
T1 sequence (O15530 51-359 T222A): as the sequence (O15530 51-359 A162V) above, with V112A, T172A counted along it
T2 sequence (O15530 51-359 V143T/T222A): as the sequence (O15530 51-359 A162V) above, with V93T, V112A, T172A counted along it
T3 sequence (O15530 51-359 L159M): as the sequence (O15530 51-359 A162V) above, with L109M, V112A counted along it
T6 sequence (O15530 51-359 E166D): as the sequence (O15530 51-359 A162V) above, with V112A, E116D counted along it

For the molecule `NCCCn1cc(C2=C(c3c[nH]c4ccccc34)C(=O)NC2=O)c2ccccc21` [Bisindolyl deriv. 19], the IC50 in experiment [1] was 3.8 µM; in experiment [2], 2 µM; in experiment [3] it was 3 µM; in experiment [4], 4 µM; in experiment [5], 2.5 µM; in experiment [6] it was 5.7 µM. Moreover, the IC50 in experiment [7] came out at 3.4 µM.

In turn, `CN1CCCC1CCn1cc(C2=C(c3c[nH]c4ccccc34)C(=O)NC2=O)c2ccccc21` (stereo not given) [3-(1H-indol-3-yl)-4-{1-[2-(1-methylpyrrolidin-2-yl)ethyl]-1H-indol-3-yl}-2,5-dihydro-1H-pyrrole-2,5-dione] registered an IC50 in experiment [4] of 14 µM.

As to `Cn1cc(C2=C(c3cn(CCCN)c4ccccc34)C(=O)NC2=O)c2ccccc21` [Ro 31-7549], in experiment [4], the IC50 came out at 1 µM.

In turn, `CN(C)CCCn1cc(C2=C(c3c[nH]c4ccccc34)C(=O)NC2=O)c2ccccc21` [2-[1-(3-dimethylaminopropyl)-indol-3-yl]-3-(indol-3-yl)maleimide] gave an IC50 in experiment [4] of 9 µM.
